The source made the active and inactive calls. No cut-off for these calls is given here.
Tests used:
RAW264.7 [1] = assay: Cytotoxicity against RANKL-treated mouse RAW264.7 cells assessed as effect on cell viability at 50 uM measured after 4 days by MTT assay; type: cell-based; details: raw264.7, 96 h, time 4 day
RAW264.7 [2] = assay: Inhibition of RANKL-induced osteoclastogenesis in mouse RAW264.7 cells assessed as reduction in number of TRAP-positive multinuclear cells at 0.2 uM measured after 4 days by TRAP staining based assay; type: functional; details: RAW264.7, 96 h, time 4 day
RAW264.7 [3] = assay: Inhibition of RANKL-induced osteoclastogenesis in mouse RAW264.7 cells assessed as reduction in number of TRAP-positive multinuclear cells measured after 4 days by TRAP staining based assay; type: functional, cell-based; details: for inhibition: time 4.0 day
RAW264.7 [4] = assay: Inhibition of RANKL-induced osteoclastogenesis in mouse RAW264.7 cells assessed as reduction in TRAP activity measured after 4 days by pNPP based assay; type: functional, cell-based; details: dose 0.2-1 µM, time 4.0 day
RAW264.7 [5] = assay: Inhibition of RANKL-induced osteoclastogenesis in mouse RAW264.7 cells assessed as reduction in number of TRAP-positive multinuclear cells at 5 uM measured after 4 days by TRAP staining based assay; type: functional, cell-based; details: time 4.0 day
RAW264.7 [6] = assay: Inhibition of RANKL-induced osteoclastogenesis in mouse RAW264.7 cells assessed as reduction in TRAP activity at 5 uM measured after 4 days by pNPP based assay; type: functional, cell-based; details: time 4.0 day
RAW264.7 [7] = assay: Inhibition of RANKL-induced osteoclastogenesis in mouse RAW264.7 cells assessed as reduction in Nfatc1 mRNA expression at 30 uM measured after 24 hrs by qRT-PCR method; type: functional

Structure (SMILES) | Activity (RAW264.7 [1]) | further results
C=C[C@@]1(C)C[C@@H](O)[C@H]2C(=C[C@H](O)[C@H]3C(C)(C)CCC[C@]23C)[C@H]1O | Non-Toxic | –
C=C[C@]1(C)C=C2[C@H](O)C[C@H]3C(C)(C)CC[C@@H](O)[C@]3(C)[C@H]2CC1 | Non-Toxic | –
C=C[C@]1(C)C=C2[C@H]([C@@H](O)C1)[C@@]1(C(=O)O)CCCC(C)(C)[C@@H]1C[C@@H]2O | Non-Toxic | inhibition at 0.2 µM (RAW264.7 [2]): 92%; inhibition (RAW264.7 [3]): Dose-Dependent Effect; inhibition (RAW264.7 [4]): Dose-Dependent Effect; inhibition (RAW264.7 [5]): Active; inhibition (RAW264.7 [6]): Active
C=C[C@]1(C)C=C2C(=O)C(=O)[C@H]3C(C)(C)CCC[C@]3(C(=O)O)[C@@]2(O)CC1 | Non-Toxic | –
C=C[C@]1(C)C=C2C(=O)[C@@H](O)[C@H]3C(C)(C)CCC[C@]3(C(=O)O[C@@H]3O[C@H](CO)[C@@H](O)[C@H](O)[C@H]3O)[C@H]2CC1 | Non-Toxic | –
C=C[C@@]1(C)CC[C@H]2[C@H]([C@H]1O)[C@@H](O)C[C@H]1C(C)(C)CCC[C@]21C(=O)O | Non-Toxic | –
C=C[C@]1(C)C=C2C(=O)C[C@H]3C(C)(C)CC[C@@H](O)[C@]3(C(=O)O)[C@H]2CC1 | Non-Toxic | –
C=C[C@@]1(C)CC[C@]2(O)[C@@]34CCCC(C)(C)C3=C(O)C(=O)[C@@]2(OC4=O)[C@H]1O | Non-Toxic | –
C=C[C@@]1(C)CC(=O)C2=C([C@H]1O)[C@@]1(O)OC[C@@]23CCCC(C)(C)[C@@H]3[C@H]1O | Non-Toxic | –
C=C[C@@]1(C)C[C@@H](O)[C@@H]2[C@@]34CCCC(C)(C)[C@@H]3[C@H](O)C(=O)[C@@]2(OC4=O)[C@H]1O | Non-Toxic | –
C=C[C@]1(C)C=C2[C@@H](O)C(=O)[C@H]3C(C)(C)CCC[C@]3(C(=O)O[C@@H]3O[C@H](CO)[C@@H](O)[C@H](O)[C@H]3O)[C@H]2CC1 | Non-Toxic | inhibition (RAW264.7 [3]): Dose-Dependent Effect; inhibition (RAW264.7 [4]): Dose-Dependent Effect; inhibition (RAW264.7 [5]): Active; inhibition (RAW264.7 [6]): Active
C=C[C@]1(C)C=C2[C@@H](O)[C@@]3(O)OC(=O)[C@@]4(CCCC(C)(C)[C@H]34)[C@@]2(O)CC1 [SPHAEROPSIDIN B] | Non-Toxic | inhibition at 30 µM (RAW264.7 [7]): 63%; IC50 (RAW264.7 [3]; RAW264.7, 96 h): 10.6 µM
C=C[C@]1(C)C=C2[C@@H](O)C[C@H]3C(C)(C)CCC[C@]3(C(=O)O)[C@H]2CC1 | Non-Toxic | –
C=C[C@@]1(C)CCc2c3c(c(O)c(OS(=O)(=O)O)c2[C@H]1O)C(C)(C)CCC3 | Non-Toxic | –
C=C[C@]1(C)C=C2C(=O)C[C@H]3C(C)(C)CCC[C@]3(C(=O)O)[C@@]2(O)CC1 [SPHAEROPSIDIN C] | Non-Toxic | –
C=C[C@]1(C)C=C2[C@@H](O)C[C@H]3C(C)(C)CCC[C@]3(C(=O)O)[C@@]2(O)[C@H](O)C1 | Non-Toxic | –
C=C[C@]1(C)C=C2[C@H]3OC(=O)[C@@]4(CCCC(C)(C)[C@@H]4[C@H]3O)[C@H]2CC1 | Non-Toxic | inhibition (RAW264.7 [3]): Dose-Dependent Effect; inhibition (RAW264.7 [4]): Dose-Dependent Effect; inhibition (RAW264.7 [5]): Active; inhibition (RAW264.7 [6]): Active
C=C[C@]1(C)C=C2[C@H]3OC(=O)[C@@]4(CCCC(C)(C)[C@@H]4[C@H]3O)[C@@]2(O)CC1 | Non-Toxic | –
C=C[C@@]1(C)CC[C@H]2C(=C[C@H](O)[C@H]3C(C)(C)CC[C@@H](O)[C@]23C)[C@H]1O | Non-Toxic | –
C=C[C@]1(C)C=C2[C@H]3OC(OC)[C@@]4([C@H](O)CCC(C)(C)[C@@H]4[C@H]3O)[C@H]2CC1 (stereo not given in full) | Non-Toxic | –
